Measured values reported in patent US20220132862A1, “PSEUDOMONAS SP. STRAIN, COMPOSITION COMPRISING THE SAME, AND USES THEREOF” (FUTURECO BIOSCIENCE, S.A., priority 2019, published 2022).

test system: B2021; experiment: Antibiotic resistance, MIC by broth microdilution (BMD); type: cell-based, Pseudomonas sp.; details: lowest antibiotic concentration that inhibited 80% of growth; LB, 18 h, 28° C.
Protocol: Minimum inhibitory concentrations (MICs) for tested antibiotics were determined by the broth microdilution (BMD) method. Four antibiotics were used: Streptomycin Sulfate, Nalidixic Acid, Oxytetracycline and Erythromycine. Briefly. MICs were determined in sterile 96-well plates by two-fold serial dilutions in 100 μL of LB. […] The MIC was defined as the lowest antibiotic concentration that inhibited 80% of growth (based on OD measurements) in comparison to the control. Moreover, cell viability was confirmed by addition of 30 μL of 0.01% resazurin. Any color changes from blue-purple to pink were recorded as positive and the MIC was defined as the lowest antibiotic concentration lacking this color change.

Row | Molecule | Antibiotic resistance (MIC) [µg/mL]
1 | CC[C@H]1OC(=O)[C@H](C)[C@@H](O[C@H]2C[C@@](C)(OC)[C@@H](O)[C@H](C)O2)[C@H](C)[C@@H](O[C@@H]2O[C@H](C)C[C@H](N(C)C)[C@H]2O)[C@](C)(O)C[C@@H](C)C(=O)[C@H](C)[C@@H](O)[C@]1(C)O [Erythromycine] | 240
2 | CCn1cc(C(=O)O)c(=O)c2ccc(C)nc21 [Nalidixic Acid] | 240
3 | CN(C)[C@@H]1C(O)=C(C(N)=O)C(=O)[C@@]2(O)C(O)=C3C(=O)c4c(O)cccc4[C@@](C)(O)[C@H]3[C@H](O)[C@@H]12 [Oxytetracycline] | 3.13
4 | Streptomycine Sulfate | 1600
